According to patent US4914107A, “Method for selectively blocking 5-HT2 receptors” (Eli Lilly and Company, priority 1989, dated 1990):
Where two headings read alike, the source gives them in different places.

Experiments:
[1] = tested on: vascular (5HT2) serotonin receptors; experiment: Inhibition of the pressor response to serotonin in pithed rats after intravenous test compound; assay type: in vivo, rat; details: for effect on pressor response to serotonin: pithed rats
Method: Serotonin receptor antagonism was evaluated in pithed Wistar normotensive rats (Charles River, Inc. Portage, MI; 240-374 g) since responses in the pithed preparation are primarily direct vascular effects. Rats were anesthetized with Metofane® (methoxyflurane), carotid arterial and femoral venous catheters were implanted, and the trachea was cannulated. Rats were pithed and ventilated with room air (Cohen et al., supra, 1983; Cohen et al., supra, 1985). An equilibration period of 15 min. was observed before control measurements and i.v. administration of test compound or vehicle. Increasing intravenous doses of serotonin were injected 15 min. after intravenous administration of test compound or vehicle. […] By intravenous administration, 1-isopropyldihydrolysergic acid was only approximately one-third as potent as the ester in blocking vascular 5HT2 receptors.

[2] = tested on: vascular (5HT2) serotonin receptors; experiment: Duration of inhibition of vascular 5HT2 receptors in pithed rats (serotonin challenge 0.1 mg/kg i.v.); assay type: in vivo, rat; details: for inhibition of vascular serotonin receptors: pithed rats; for Increase in mean blood pressure to serotonin: 0.1 mg/kg iv
Method: For these studies pithed rats were treated with vehicle or with the acid or the ester at a dose of 0.1 mg/kg, i.v. and challenged with serotonin (0.1 mg/kg i.v.) at various intervals for 2 hrs. after test compound or vehicle administration.

5HT2 receptors [3] = biological target: T1, 5HT2 receptors (Rattus norvegicus, UniProt P14842); experiment: Antagonism of serotonin-induced contractions in the rat jugular vein (in vitro 5HT2 affinity); assay type: cell-based
T1 construct: Ring preparations of external rat jugular veins were used; tissue Harlan Sprague-Dawley, Inc., Cumberland, IN (animals); host or cells: external jugular vein rings of male Wistar rats
T1 sequence (P14842 whole entry): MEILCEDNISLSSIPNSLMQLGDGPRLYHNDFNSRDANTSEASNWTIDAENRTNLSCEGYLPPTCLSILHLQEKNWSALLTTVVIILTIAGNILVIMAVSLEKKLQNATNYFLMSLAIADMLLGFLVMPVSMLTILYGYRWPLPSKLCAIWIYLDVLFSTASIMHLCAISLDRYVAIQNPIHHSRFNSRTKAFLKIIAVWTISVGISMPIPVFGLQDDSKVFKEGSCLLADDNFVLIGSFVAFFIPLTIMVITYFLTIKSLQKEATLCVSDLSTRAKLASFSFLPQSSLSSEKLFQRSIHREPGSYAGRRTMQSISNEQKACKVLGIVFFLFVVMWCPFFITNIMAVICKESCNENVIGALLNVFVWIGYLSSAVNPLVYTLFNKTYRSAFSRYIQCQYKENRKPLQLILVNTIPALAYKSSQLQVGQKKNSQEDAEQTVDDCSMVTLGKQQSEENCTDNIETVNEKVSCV
Method: Male Wistar rats (150-300 g) (Harlan Sprague-Dawley, Inc., Cumberland, IN) were killed by cervical dislocation. Ring preparations of external rat jugular veins were used as detailed in [(Cohen et al., J. Pharm. and Exper. Therapeutics 227, 327-332 (1983); Cohen et al., J. Pharm. and Exper. Therapeutics 235, 319-323 (1985).]
Tissues were mounted in organ baths containing 10 ml of modified Krebs' solution of the following composition (millimolar concentrations): NaCl, 118.2; KCl, 4.6; CaCl2.2H2 O, 1.6; KH2 PO4, 1.2; MgSO4, 1.2; dextrose, 10.0; and NaHCO3, 24.8. Tissue bath solutions were maintained at 37° C. and aerated with 95% O2 -5% CO2. Isometric contractions were recorded as changes in grams of force on a Beckman Dynograph with Statham UC-3 transducers and microscale accessory attachments. Tissues were allowed to equilibrate at an initial optimum resting force for 1 to 2 hr before exposure to test compound.
After control contractile responses to serotonin were obtained in the jugular vein, vessels were incubated with appropriate concentrations of the test compound for 1 hr. Responses to serotonin were then repeated in the presence of test compound.
Apparent test compound dissociation constants (KB) were determined for each concentration of test compound according to the following equation: [formula] where (B) is the concentration of the test compound and dose ratio is the ED50 of the serotonin in the presence of the test compound divided by the control ED50. […] The data were also analyzed according to the procedure of Arunlakshana and Schild, Brit. J. Pharmacol. 14, 48-58 (1959) as previously described [Cohen et al., supra (1983)].

5HT2 receptors [4] = biological target: T1, 5HT2 receptors; details: cited from earlier work
[5] = tested on: vascular (5HT2) serotonin receptors; experiment: Duration of inhibition of vascular 5HT2 receptors in pithed rats (serotonin challenge 0.1 mg/kg i.v.); assay type: in vivo, rat; details: 0.3 mg/kg iv
[6] = 15 minutes after test compound, serotonin 0.1 mg/kg iv
[7] = 120 minutes after test compound

COC1CCC(OC(=O)C2C[C@@H]3c4cccc5c4c(cn5C(C)C)C[C@H]3N(C)C2)CC1 (some centres unmarked) [I, reference compound]
effect on pressor response to serotonin ([1]; intravenous): dose-dependently inhibited | inhibition of vascular serotonin receptors ([2]; 0.1 mg/kg i.v.): greater inhibition of vascular serotonin receptors than the acid | Increase in mean blood pressure to serotonin [2, 6]: 7.3 mm Hg | Increase in mean blood pressure to serotonin ([2]; 30 minutes after test compound): 12.7 mm Hg | Increase in mean blood pressure to serotonin ([2]; 60 minutes after test compound): 23.9 mm Hg | Increase in mean blood pressure to serotonin ([2]; 90 minutes after test compound): 34.6 mm Hg | Increase in mean blood pressure to serotonin [2, 7]: 34.6 mm Hg

CC(C)n1cc2c3c(cccc31)C1C[C@@H](C(=O)O)CN(C)[C@@H]1C2 (some centres unmarked) [II, 1-isopropyldihydrolysergic acid]
potency as a 5HT2 antagonist in vivo ([1]; in vivo): relatively high potency | intravenous dose relative to the 4-methoxycyclohexyl ester to block vascular 5HT2 receptors ([1]; intravenous): three-fold higher | potency relative to the ester in blocking vascular 5HT2 receptors ([1]; intravenous administration): approximately one-third | effect on pressor response to serotonin ([1]; intravenous): dose-dependently inhibited | Kb (5HT2 receptors [3]; Schild plot abscissa intercept, rat jugular vein, read-out: pA2 (converted)): 151 nM | type of antagonism at 5HT2 receptors (5HT2 receptors [3]; jugular vein, Schild slope not different from negative unity): competitive antagonist | Kd (5HT2 receptors [3]; rat jugular vein): ~100 nM | affinity fold lower than the 4-methoxycyclohexyl ester (5HT2 receptors [3]; rat jugular vein): approximately 100 fold | Kb (5HT2 receptors [3]; rat jugular vein, serotonin contraction, apparent dissociation constant, n tissues in parentheses, read-out: -log KB ± SE(n) (converted)): 85.1 nM | ratio II/I (pA2) (5HT2 receptors [3]; ratio from pA2 of II and I): 170 | ratio II/I (KB) (5HT2 receptors [3]; ratio of KB of II to I): 78 | -Slope (5HT2 receptors [3]; slope of Schild plot, rat jugular vein): 1.29 | affinity in vitro for 5HT2 receptors (background statement) (5HT2 receptors [4]): relatively low affinity | inhibition of vascular serotonin receptors ([2]; 0.1 mg/kg i.v.): marked block of vascular serotonin receptors | inhibition of serotonin vascular response 2 hrs. after administration ([2]; 0.1 mg/kg i.v., 2 hrs. after intravenous administration): marked inhibition of serotonin vascular response was still apparent | Increase in mean blood pressure to serotonin [2, 6]: 29.7 mm Hg | Increase in mean blood pressure to serotonin ([2]; 30 minutes after test compound): 27.8 mm Hg | Increase in mean blood pressure to serotonin ([2]; 60 minutes after test compound): 35.3 mm Hg | Increase in mean blood pressure to serotonin ([2]; 90 minutes after test compound): 41.7 mm Hg | Increase in mean blood pressure to serotonin [2, 7]: 48.1 mm Hg | Increase in mean blood pressure to serotonin ([5]; 15 minutes after test compound): 3.2 mm Hg | Increase in mean blood pressure to serotonin ([5]; 30 minutes after test compound): 3.4 mm Hg | Increase in mean blood pressure to serotonin ([5]; 60 minutes after test compound): 4.2 mm Hg | Increase in mean blood pressure to serotonin ([5]; 90 minutes after test compound): 9.6 mm Hg | Increase in mean blood pressure to serotonin [5, 7]: 13.6 mm Hg
